Measured values taken from patent US7691382B2, “Antiviral polypeptides comprising tandem repeats of APOE 141-149 and variants thereof” (priority 2003, dated 2010).
Peptide text beside a SMILES is read from it.

Columns and labels:
HSV1 = type: cell-based, Human herpes simplex virus type 1; details: for efficacy for reducing HSV1 infectivity (in words): Examples 2 and 3
Summary of the method: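 Plaque reduction in Vero monolayers: ~100 pfu HSV1 pre-mixed 10 min at 37 °C with acetylated/amidated peptides in 0.5% FCS medium, inoculated 60–80 min, then carboxymethylcellulose overlay for 22 or 40 h. Plaques counted after fixing and carbol fuchsin staining; IC50 from % of control versus peptide concentration.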

HSV2 clinical isolates = type: cell-based, Human herpes simplex virus type 2
Method: Plaque assays were performed. The methodology was as described in previous Examples for HSV1 plaque assays (including usage of Vero cells) except HSV2 clinical isolates (provided by Prof. Anthony Hart of Liverpool University) were employed instead.

HIV-1 111B = HIV-1 111B in C8166 T-cells, syncytia and gp120 ELISA; type: cell-based, Human Immunodeficiency Virus; details: 5 days, read-out: IC50 for inhibiting HIV-1 growth
Method: Peptides (prepared as described previously) were diluted in 50 μl aliquots and mixed with T-cells (C8166) at 40,000 cells per well. Next HIV-1 111B was added at a multiplicity of infection (MOI) of 0.01, and the mixture incubated for 5 days at 37° C. Syncytia formation was assessed visually using an inverting microscope, and viral gp120 levels in supernatants assessed by a gp120 ELISA using GNA for antigen capture. 96-well plates coated with 50 ul GNA (Galanthus nivalis) were washed, then treated with 100 μl RPMI (10% foetal calf serum) and left for one hour. After further washing, 25 μl test sample supernatants were added to wells, along with dilutions of infected control samples. After lysis by 3 hr treatment with 0.5% Empigen (detergent used to lyse virus) to all wells, and washing, 50 μl of human anti-HIV sera was added, and plates incubated overnight. After further washing, 50 μl of a 1000× dilution of anti-human Ig peroxidase conjugate was added, and plates incubated at 37° C. for 90 min. After a final wash, 50 ul peroxidase substrate was added to each well, and plates incubated for 10-30 min. Reaction was stopped with 25 μl 2M H2SO4, and A450 measured.

HIV-1 = details: NP2 glioma cells, peptide 0.1 to 10 micromolar
Method: The glioma cell line NP2 over-expressing both CD4 and the appropriate co-receptor (CCR5 or CXCR4) were maintained in DMEM supplemented with 10% FCS. 2×10^4 cells were plated per well of a 48-well plate 24 h prior to infection and grown at 37 C. The cells were then washed, and incubated in DMEM/FCS containing peptide concentrations ranging from 0.1 to 10 micromolar, at 37 C for 30 minutes. 200 focus-forming units of HIV-1 stocks were then added to each well, and the cells incubated at 37 C for a further 2 hours. The cells were then washed twice in PBS and fresh medium replaced. After 3 day's growth the cells were fixed in cold methanol:acetone, and stained in situ for expression of HIV-1 p24 using a monoclonal anti-p24 followed by a secondary anti-mouse beta-galactosidase conjugate. Expression was visualised by X-Gal staining and infectious foci enumerated by light-microscopy.

| SMILES | IC50 (HSV1) [µM] | IC50 (HSV2 clinical isolates) [µM] | IC50 (HIV-1 111B) [µM] | efficacy for reducing HSV1 infectivity (in words) (HSV1) | anti-HIV activity (in words) (HIV-1) |
| --- | --- | --- | --- | --- | --- |
| CC(=O)N[C@@H](Cc1c[nH]c2ccccc12)C(=O)N[C@@H](CCCNC(=N)N)C(=O)N[C@@H](CCCCN)C(=O)N[C@@H](Cc1c[nH]c2ccccc12)C(=O)N[C@@H](CCCNC(=N)N)C(=O)N[C@@H](CCCCN)C(=O)N[C@@H](CCCNC(=N)N)C(=O)N[C@@H](Cc1c[nH]c2ccccc12)C(=O)N[C@@H](Cc1c[nH]c2ccccc12)C(=O)N[C@@H](CCCNC(=N)N)C(=O)N[C@@H](Cc1c[nH]c2ccccc12)C(=O)N[C@@H](CCCNC(=N)N)C(=O)N[C@@H](CCCCN)C(=O)N[C@@H](Cc1c[nH]c2ccccc12)C(=O)N[C@@H](CCCNC(=N)N)C(=O)N[C@@H](CCCCN)C(=O)N[C@@H](CCCNC(=N)N)C(=O)N[C@@H](Cc1c[nH]c2ccccc12)C(=O)N[C@@H](Cc1c[nH]c2ccccc12)C(=O)N[C@@H](CCCNC(=N)N)C(N)=O [MU 83] (Ac-WRKWRKRWWRWRKWRKRWWR-NH2) | 2.5 | < 3.3 | – | – | – |
| CC(=O)N[C@@H](Cc1c[nH]c2ccccc12)C(=O)N[C@@H](CCCNC(=N)N)C(=O)N[C@@H](CCCCN)C(=O)N[C@@H](Cc1c[nH]c2ccccc12)C(=O)N[C@@H](CCCNC(=N)N)C(=O)N[C@@H](CCCCN)C(=O)N[C@@H](CCCNC(=N)N)C(=O)N[C@@H](Cc1c[nH]c2ccccc12)C(=O)N[C@@H](CCCNC(=N)N)C(=O)N[C@@H](CCCCN)C(=O)N[C@@H](Cc1c[nH]c2ccccc12)C(=O)N[C@@H](CCCNC(=N)N)C(=O)N[C@@H](CCCCN)C(=O)N[C@@H](CCCNC(=N)N)C(N)=O [GIN 32] (Ac-WRKWRKRWRKWRKR-NH2) | 10 | 6.25 | 7.5 | also had efficacy | – |
| CC(=O)N[C@@H](CC(C)C)C(=O)N[C@@H](CCCNC(=N)N)C(=O)N[C@@H](CCCCN)C(=O)N[C@@H](CC(C)C)C(=O)N[C@@H](CCCNC(=N)N)C(=O)N[C@@H](CCCCN)C(=O)N[C@@H](CCCNC(=N)N)C(=O)N[C@@H](CC(C)C)C(=O)N[C@@H](CC(C)C)C(=O)N[C@@H](Cc1c[nH]c2ccccc12)C(=O)N[C@@H](CCCNC(=N)N)C(=O)N[C@@H](CCCCN)C(=O)N[C@@H](Cc1c[nH]c2ccccc12)C(=O)N[C@@H](CCCNC(=N)N)C(=O)N[C@@H](CCCCN)C(=O)N[C@@H](CCCNC(=N)N)C(=O)N[C@@H](Cc1c[nH]c2ccccc12)C(=O)N[C@@H](Cc1c[nH]c2ccccc12)C(N)=O [MU 111] (Ac-LRKLRKRLLWRKWRKRWW-NH2) | 12.5 | 6.5 | – | – | – |
| CC(=O)N[C@@H](CC(C)C)C(=O)N[C@@H](CCCNC(=N)N)C(=O)N[C@@H](CCCCN)C(=O)N[C@@H](CC(C)C)C(=O)N[C@@H](CCCNC(=N)N)C(=O)N[C@@H](CCCCN)C(=O)N[C@@H](CCCNC(=N)N)C(=O)N[C@@H](CC(C)C)C(=O)N[C@@H](CC(C)C)C(=O)N[C@@H](CC(C)C)C(=O)N[C@@H](CCCNC(=N)N)C(=O)N[C@@H](CCCCN)C(=O)N[C@@H](CC(C)C)C(=O)N[C@@H](CCCNC(=N)N)C(=O)N[C@@H](CCCCN)C(=O)N[C@@H](CCCNC(=N)N)C(=O)N[C@@H](CC(C)C)C(=O)N[C@@H](CC(C)C)C(N)=O [GIN 1p] (Ac-LRKLRKRLLLRKLRKRLL-NH2) | – | – | – | had anti-HSV-1 properties | no detectable anti-HIV activity |

The next lines start with results.

| IC50 (HSV1) [µM] | IC50 (HSV2 clinical isolates) [µM] | SMILES | IC50 (HIV-1 111B) [µM] | efficacy for reducing HSV1 infectivity (in words) (HSV1) | anti-HIV activity (in words) (HIV-1) |
| --- | --- | --- | --- | --- | --- |
| 18.5 | 11.8 | CC(=O)N[C@@H](CC(C)C)C(=O)N[C@@H](CCCNC(=N)N)C(=O)N[C@@H](CCCCN)C(=O)N[C@@H](CC(C)C)C(=O)N[C@@H](CCCNC(=N)N)C(=O)N[C@@H](CCCCN)C(=O)N[C@@H](CCCNC(=N)N)C(=O)N[C@@H](CC(C)C)C(=O)N[C@@H](CC(C)C)C(=O)N[C@@H](Cc1c[nH]c2ccccc12)C(=O)N[C@@H](CCCNC(=N)N)C(=O)N[C@@H](CCCCN)C(=O)N[C@@H](Cc1c[nH]c2ccccc12)C(=O)N[C@@H](CCCNC(=N)N)C(=O)N[C@@H](CCCCN)C(=O)N[C@@H](CCCNC(=N)N)C(=O)N[C@@H](CC(C)C)C(=O)N[C@@H](CC(C)C)C(N)=O [MU 113] (Ac-LRKLRKRLLWRKWRKRLL-NH2) | – | – | – |
| > 20 | 16 | CC(=O)N[C@@H](CC(C)C)C(=O)N[C@@H](CCCNC(=N)N)C(=O)N[C@@H](CCCCN)C(=O)N[C@@H](CC(C)C)C(=O)N[C@@H](CCCNC(=N)N)C(=O)N[C@@H](CCCCN)C(=O)N[C@@H](CCCNC(=N)N)C(=O)N[C@@H](CC(C)C)C(=O)N[C@@H](CC(C)C)C(=O)N[C@@H](CC(C)C)C(=O)N[C@@H](CCCNC(=N)N)C(=O)N[C@@H](CCCCN)C(=O)N[C@@H](CC(C)C)C(=O)N[C@@H](CCCNC(=N)N)C(=O)N[C@@H](CCCCN)C(=O)N[C@@H](CCCNC(=N)N)C(=O)N[C@@H](Cc1c[nH]c2ccccc12)C(=O)N[C@@H](Cc1c[nH]c2ccccc12)C(N)=O [MU 112] (Ac-LRKLRKRLLLRKLRKRWW-NH2) | – | – | – |
